Article PMC5470083 (Molecular imaging, 2016)

How the values were obtained:
[1] = target: Aβ fibrils; conditions: read-out: Ki for Aβ fibrils; reported values; ref [3],[13]; cited from earlier work
[2] = target: tau (NFTs) (Homo sapiens, UniProt P10636); format: binding; conditions: 1 µmol/L compound; tracer 40 nmol/L [18F]T808; human AD slices; n = 3
Sequence of tau (NFTs) (P10636 623-708 limits assumed): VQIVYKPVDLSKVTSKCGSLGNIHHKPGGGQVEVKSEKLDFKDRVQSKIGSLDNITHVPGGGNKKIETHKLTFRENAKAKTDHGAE

% Block ± SD of tracer binding [2]: 93 ± 0.0%
SMILES: CNc1ccc(-c2ccc3ccccc3n2)cc1 [BF-158, N-Methyl-4-(quinolin-2-yl)benzenamine]
Ki [1]: > 5 µM
